According to ChEMBL document CHEMBL1201862, “PubChem BioAssay data set” (2004):
One block for each molecule: values may come before it. Calls of active or inactive are those of the source.

Experiments:
[1] = enhancers of respiration in Yfh1-depleted yeast, dose response, Friedreich's ataxia, plus single-dose screen (AID 1465); format: functional;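 note: yeast depleted of Yfh1p frataxin homolog grown on glycerol needing respiration; WST-1 tetrazolium dye reduction as measure of cellular dehydrogenase metabolic activity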
[2] = biological target: T1, DNA repair protein RAD52 homolog (Homo sapiens, UniProt P43351); format: functional, biochemical
T1 sequence (P43351 whole entry): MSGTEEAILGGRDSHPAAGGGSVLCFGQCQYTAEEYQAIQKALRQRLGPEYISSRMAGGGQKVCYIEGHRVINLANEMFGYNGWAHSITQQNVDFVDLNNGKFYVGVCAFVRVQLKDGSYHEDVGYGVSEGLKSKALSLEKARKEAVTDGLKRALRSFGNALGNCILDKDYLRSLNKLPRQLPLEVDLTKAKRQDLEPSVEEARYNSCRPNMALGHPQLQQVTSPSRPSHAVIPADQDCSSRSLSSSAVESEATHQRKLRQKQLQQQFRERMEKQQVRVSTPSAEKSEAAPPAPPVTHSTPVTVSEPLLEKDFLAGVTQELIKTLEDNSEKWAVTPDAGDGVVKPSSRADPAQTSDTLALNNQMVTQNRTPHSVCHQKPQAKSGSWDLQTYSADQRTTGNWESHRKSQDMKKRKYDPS

Insulin-degrading enzyme = biological target: T2, Insulin-degrading enzyme (Homo sapiens, UniProt P14735); assay: Dose Response: Fluorescence polarization-based cell-based high throughput dose response assay for inhibitors of insulin-degrading enzyme (IDE). [Related pubchem assays: 434962 (Primary screen (IDE inhibitors in singlicate)), 449730 (Counterscreen (Cytotoxicity in triplicate)), 435028 (Confirmation (IDE inhibitors in triplicate)), 434984 (Summary …; format: functional
T2 sequence (P14735 whole entry): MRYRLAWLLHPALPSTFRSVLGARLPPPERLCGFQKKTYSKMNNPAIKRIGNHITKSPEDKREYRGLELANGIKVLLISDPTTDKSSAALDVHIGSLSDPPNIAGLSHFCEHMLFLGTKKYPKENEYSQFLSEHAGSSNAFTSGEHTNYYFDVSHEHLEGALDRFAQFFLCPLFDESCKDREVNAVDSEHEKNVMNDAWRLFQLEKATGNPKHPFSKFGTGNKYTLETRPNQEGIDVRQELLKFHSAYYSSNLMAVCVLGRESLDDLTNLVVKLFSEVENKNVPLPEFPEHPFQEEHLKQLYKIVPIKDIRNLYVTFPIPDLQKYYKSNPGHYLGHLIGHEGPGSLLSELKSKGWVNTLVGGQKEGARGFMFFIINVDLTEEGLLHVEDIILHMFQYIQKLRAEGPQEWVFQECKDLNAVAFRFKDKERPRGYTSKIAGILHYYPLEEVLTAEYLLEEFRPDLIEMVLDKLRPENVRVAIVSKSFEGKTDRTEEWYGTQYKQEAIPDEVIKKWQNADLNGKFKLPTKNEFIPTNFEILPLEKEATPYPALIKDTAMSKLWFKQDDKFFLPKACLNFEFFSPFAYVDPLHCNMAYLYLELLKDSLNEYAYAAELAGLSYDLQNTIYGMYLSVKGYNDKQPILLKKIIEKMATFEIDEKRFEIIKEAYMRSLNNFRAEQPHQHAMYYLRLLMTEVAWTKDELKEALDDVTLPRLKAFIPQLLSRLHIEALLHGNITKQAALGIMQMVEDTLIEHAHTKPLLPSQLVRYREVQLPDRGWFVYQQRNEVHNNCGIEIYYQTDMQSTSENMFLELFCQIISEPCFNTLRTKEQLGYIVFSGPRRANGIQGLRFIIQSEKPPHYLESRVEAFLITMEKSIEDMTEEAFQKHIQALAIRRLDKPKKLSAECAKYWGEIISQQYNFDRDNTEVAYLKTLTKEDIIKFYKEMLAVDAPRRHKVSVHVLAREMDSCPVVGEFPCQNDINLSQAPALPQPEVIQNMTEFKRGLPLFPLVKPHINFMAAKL

[3] = Counterscreen for IDE inhibitors: Luminescence-based cell-based high throughput dose response assay to identify compounds that are cytotoxic to HEK cells. [Related pubchem assays: 434962 (Primary screen (IDE inhibitors in singlicate)), 449730 (Counterscreen (Cytotoxicity in triplicate)), 435028 (Confirmation (IDE inhibitors in triplicate)) …; format: functional; settings: HEK293
Bcl-2-like protein 10 = biological target: T3, Bcl-2-like protein 10 (Homo sapiens, UniProt Q9HD36); assay: Biochemical TR3 FP assay of Bcl-B inhibitor potency, EC50 (AID 1243); format: functional
T3 sequence (Q9HD36 whole entry): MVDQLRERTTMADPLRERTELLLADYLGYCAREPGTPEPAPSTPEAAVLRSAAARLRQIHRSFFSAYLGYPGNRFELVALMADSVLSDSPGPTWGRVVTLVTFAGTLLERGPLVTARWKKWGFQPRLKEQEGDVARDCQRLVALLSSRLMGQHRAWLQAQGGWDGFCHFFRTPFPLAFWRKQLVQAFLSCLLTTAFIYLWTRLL

Vero = Vero cell cytotoxicity, cytotoxicity control for flavivirus capping enzyme inhibitors (AID 588742); format: functional; settings: Chlorocebus sabaeus
[4] = HIV-1 Env-mediated cell fusion inhibitors, dose response, CCR5-tropic Env (AID 2279); format: functional
Genome polyprotein = Genome polyprotein (dengue virus type 2, UniProt P29990); assay: Dengue-2 NS5 methyltransferase inhibitors, primary screen, biochemical, confirmation dose response (AID 588689); format: functional
Chain of Genome polyprotein (P29990 2492-3391 limits assumed): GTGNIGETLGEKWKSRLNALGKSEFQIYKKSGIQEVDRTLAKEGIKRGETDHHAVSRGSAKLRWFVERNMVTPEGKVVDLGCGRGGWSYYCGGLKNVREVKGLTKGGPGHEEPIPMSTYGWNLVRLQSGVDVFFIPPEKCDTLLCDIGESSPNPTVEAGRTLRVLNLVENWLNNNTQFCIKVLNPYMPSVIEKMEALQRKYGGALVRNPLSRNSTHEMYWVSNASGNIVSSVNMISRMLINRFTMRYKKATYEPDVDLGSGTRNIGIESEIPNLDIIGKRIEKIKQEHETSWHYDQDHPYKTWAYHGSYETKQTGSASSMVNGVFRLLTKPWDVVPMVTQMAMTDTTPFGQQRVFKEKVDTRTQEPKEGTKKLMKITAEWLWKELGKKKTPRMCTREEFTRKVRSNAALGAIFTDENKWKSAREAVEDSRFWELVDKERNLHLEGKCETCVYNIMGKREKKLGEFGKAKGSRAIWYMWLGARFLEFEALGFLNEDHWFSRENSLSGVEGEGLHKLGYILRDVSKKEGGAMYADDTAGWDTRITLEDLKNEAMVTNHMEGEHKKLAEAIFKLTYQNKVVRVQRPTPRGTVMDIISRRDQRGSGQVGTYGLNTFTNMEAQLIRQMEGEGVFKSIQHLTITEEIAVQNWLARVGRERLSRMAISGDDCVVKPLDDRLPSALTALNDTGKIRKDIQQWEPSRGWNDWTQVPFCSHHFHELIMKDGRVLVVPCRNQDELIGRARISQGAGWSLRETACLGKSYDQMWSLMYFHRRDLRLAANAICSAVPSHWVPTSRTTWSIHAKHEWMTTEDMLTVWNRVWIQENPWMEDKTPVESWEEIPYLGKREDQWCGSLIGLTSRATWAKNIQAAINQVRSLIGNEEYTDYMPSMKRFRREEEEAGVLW

[5] = biological target: FAD-linked sulfhydryl oxidase ALR (Homo sapiens, UniProt P55789); assay: inhibitors of human ALR sulfhydryl oxidase, dose response, biochemical, H2O2 detection, luminescence, cherry-pick (AID 493248)
Chain of FAD-linked sulfhydryl oxidase ALR (P55789 whole entry): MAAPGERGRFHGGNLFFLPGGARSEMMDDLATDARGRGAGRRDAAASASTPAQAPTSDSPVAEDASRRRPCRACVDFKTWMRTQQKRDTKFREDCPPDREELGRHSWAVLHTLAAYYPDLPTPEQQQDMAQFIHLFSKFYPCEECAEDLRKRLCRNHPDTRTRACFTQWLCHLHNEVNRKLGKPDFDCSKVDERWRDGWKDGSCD

[6] = biological target: Induced myeloid leukemia cell differentiation protein Mcl-1 (Homo sapiens, UniProt Q07820); format: functional
Chain of Induced myeloid leukemia cell differentiation protein Mcl-1 (Q07820 whole entry): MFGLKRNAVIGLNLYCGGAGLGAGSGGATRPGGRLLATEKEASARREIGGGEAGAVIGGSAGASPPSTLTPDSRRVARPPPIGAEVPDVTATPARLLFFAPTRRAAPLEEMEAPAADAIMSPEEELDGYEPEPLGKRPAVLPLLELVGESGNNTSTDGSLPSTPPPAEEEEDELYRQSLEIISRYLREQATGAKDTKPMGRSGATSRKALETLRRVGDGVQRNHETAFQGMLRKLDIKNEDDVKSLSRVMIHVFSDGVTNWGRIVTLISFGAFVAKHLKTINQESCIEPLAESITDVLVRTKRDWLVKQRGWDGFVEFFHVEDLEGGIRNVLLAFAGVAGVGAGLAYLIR

[7] = biological target: Neuropeptide Y receptor type 1 (Homo sapiens, UniProt P25929); format: functional;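 note: HEK293 cells with a CNG channel challenged with NPY then isoproterenol; potency as antagonist that reverses NPY suppression of cAMP signal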
Chain of Neuropeptide Y receptor type 1 (P25929 whole entry): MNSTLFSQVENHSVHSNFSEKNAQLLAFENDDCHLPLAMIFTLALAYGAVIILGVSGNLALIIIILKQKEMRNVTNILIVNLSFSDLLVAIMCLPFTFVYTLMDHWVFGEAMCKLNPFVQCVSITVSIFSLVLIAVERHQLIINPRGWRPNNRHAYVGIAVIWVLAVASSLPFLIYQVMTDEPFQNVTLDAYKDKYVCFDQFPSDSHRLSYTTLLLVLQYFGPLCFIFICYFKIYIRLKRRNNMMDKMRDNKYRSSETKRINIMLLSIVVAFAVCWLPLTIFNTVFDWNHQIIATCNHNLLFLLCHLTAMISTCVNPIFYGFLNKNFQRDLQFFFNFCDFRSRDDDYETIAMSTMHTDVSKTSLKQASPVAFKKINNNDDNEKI

[8] = biological target: Neuropeptide Y receptor type 2 (Homo sapiens, UniProt P49146); format: functional, cell-based;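 note: HEK293 cells expressing the receptor and a CNG channel; stimulus was NPY near EC95 followed by isoproterenol to raise cAMP; antagonist potency measured as restoring cAMP signal that NPY suppresses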
Chain of Neuropeptide Y receptor type 2 (P49146 whole entry): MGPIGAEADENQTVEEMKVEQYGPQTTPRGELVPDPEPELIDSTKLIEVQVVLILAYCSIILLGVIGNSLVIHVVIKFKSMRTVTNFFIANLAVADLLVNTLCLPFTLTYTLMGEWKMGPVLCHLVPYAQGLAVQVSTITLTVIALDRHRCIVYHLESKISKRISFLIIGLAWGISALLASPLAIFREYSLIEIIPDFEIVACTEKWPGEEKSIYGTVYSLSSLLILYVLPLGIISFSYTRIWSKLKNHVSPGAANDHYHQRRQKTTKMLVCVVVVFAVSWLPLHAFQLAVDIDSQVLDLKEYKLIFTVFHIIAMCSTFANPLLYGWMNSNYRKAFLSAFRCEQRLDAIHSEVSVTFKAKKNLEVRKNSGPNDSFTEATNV

SMILES: CCN(CC)c1ccc2cc(C(N)=O)c(=N)oc2c1
- EC50 [1]: > 100 µM (active)

SMILES: CCOC(=O)c1c(C)n(Cc2ccccc2)c2ccc(OCC(O)CNC(C)(C)C)cc12 (configuration not stated)
- AC50 [2]: 22 µM (active)
- IC50 (Insulin-degrading enzyme): > 55.9 µM (not active)
- IC50 [3]: 14.5 µM (not active)

- EC50 (Bcl-2-like protein 10): 5.38 µM (active)
SMILES: Cc1cc(C)nc(/N=C(\N)Nc2ccc(N)cc2)n1

SMILES: CN(C)S(=O)(=O)c1cccc(-c2nn(-c3ccccc3)cc2/C=C2\SC(=S)N(CC(=O)O)C2=O)c1
- CC50 (Vero): > 40 µM (active)
- IC50 [4]: 48.8 µM (active)
- IC50 (Genome polyprotein): 79.5 µM (active)
- AC50 [5]: 15.5 µM (active)
- IC50 [6]: 4.8 µM (active)

- IC50 [7]: < 12 µM (not active)
- IC50 [8]: 6.17 µM (active)
SMILES: CCN(CC)CC#CCC(C)(c1ccccc1)c1ccccc1
